Assay results: patent publication US6599501B1, “Immunomodulators” (Steeno Research Group A/S, priority 1994, dated 2003)

Key:
Assay type in all cases: cell-based
[1] = tested on: spontaneous IL-8 production by human monocytes; assay: Spontaneous IL-8 production by purified cultured human monocytes (IL-8 ELISA); conditions: any concentration of IT9302 between 0.1 and 1000 ng/ml; this and following examples
[2] = tested on: IL-1β induced IL-8 production by human peripheral blood mononuclear cells (PBMC); assay: IL-1β induced IL-8 production by human peripheral blood mononuclear cells (IL-8 ELISA); conditions: r-hIL-1β 1 ng/ml; 48 hours total incubation
Method: PBMC was purified from heparinized blood of normal human donors. Following gradient centrifugation with-Lymphoprep™ (Nycomed Pharma, Oslo, Norway), the mononuclear cells were diluted to 2×10^6 cells/ml in LPS-free RPMI 1640 medium (Gibco Cat.No. 6187-010) containing 1% sterile filtered heat-inactivated fetal calf serum and penicillin (10,000 IE/ml), streptomycin (10 mg/ml) and gentamycin (2.5 mg/ml). Cells were cultured in 24 wells Nunc Micro Plates (Nunc, Denmark) and in the presence of different concentration of IT9302 (0, 1 μg, 100 ng, 10 ng, 1 ng, 0.1 ng, 0.01 ng/ml) for 24 hours. Following 24 hours of incubation, another dose of IT9302 was added once more, and 1 hour later r-hIL-1β (1 ng/ml) was added to the cell cultures. Supernatants were collected after a total of 48 hours of incubation, and the concentration of the secreted IL-8 was measured by IL-8 ELISA by using an IL-8 ELISA Kit (Dainippon Pharmaceutical Co. Ltd, Osaka, Japan). Briefly, standards and cell supernatants were incubated for one hour and in duplicates at 20° C. on a micro-plate shaker. Then after washing, a second antibody was added for one hour, followed by one hour of incubation with peroxidase-labelled goat anti-rabbit IgG. […] Optical density (OD) was measured in an ELISA reader at 490 nm. IL-8 concentration was calculated by a calibration curve of absorbance of unknown vs concentrations of IL-8 standards. […]

[3] = tested on: IRAP production by human monocytes; assay: Production of interleukin-1 receptor antagonist protein (IRAP) by human monocytes (IRAP ELISA); conditions: monocytes stimulated 24 hours
Method: PBMC was purified as described above. PBMC was cultured in RMPI 1640, 10% sterile heat-inactivated fetal calf serum (including penicillin 10,000 IE/ml, streptomycin 10 mg/ml, gentamycin 2.5 mg/ml) and the cell concentration was 5×10^6 cells/ml. The monocytes were then purified by standard plastic adherence technique. Monocytes were then cultured in RPMI 1640 with 2% FCS (2.5×10^6 cells/ml) and with different dilutions of rhIL-10 or IT9302. The cells were stimulated for 24 hours and the supernatants were collected for IRAP determination. IRAP ELISA was carried out by using Human IL-1ra Quantikin Immunoassay Kit from R&D Systems Europe Ltd. (Cat.No. DRA 00, Abingdon, Oxon, UK).
The test was performed as described in “Determination of IRAP concentration”.

[4] = tested on: class II MHC molecule expression on human monocytes; assay: Class II MHC antigen expression on monocytes (rosetting with HLA class II Dynabeads)
Method: PBMC was purified as described above and monocytes isolated by plastic adherence technique. Monocytes were then cultured in RPMI 1640 with 2% FCS including penicillin 10,000 IE/ml, streptomycin 10 mg/ml, gentamycin 2.5 mg/ml at a cell concentration of 3×10^6/ml. Cells were stimulated for 40 hours in microwells (Nunc, Denmark) with 100 ng/ml rhIL-10, or IT9302 1 μg/ml, 100 ng/ml, 10 ng/ml. At the end of stimulation, the supernatants were removed and the cells were detached from the plastic by freezing at −20° C. for 20 minutes. The cells were collected in 1 ml of cold HBSS with 1% FCS and sorted at 20° C. by using 50 μl/ml Dynabeads M 450 coated with monoclonal antibody for HLA class II β chain (Cat. No. 210.03). After 20 minutes of incubation, the cells were washed 3 times with cold HBSS with 1% FCS and collected on a magnetic separation device. The cells were diluted in the above buffer and stained with methylene blue, and the resetting cells (cells carrying Dynabeads with HLA class II mAb) were counted.

[5] = tested on: IL-4 production by cultured normal human CD4+ T cells; assay: IL-4 production by CD4+ T lymphocytes (ECL-Western blotting); conditions: 100 ng/ml, 3 days, cytosolic fractions
Method: CD4+ T lymphocytes were purified from heparinized normal human blood. Following Lymphoprep™ (Nycomed Pharma, Oslo, Norway) gradient centrifugation, the mononuclear cells were further sorted at 4° C. using Dynabeads (Dynal AS, Norway) coated with monoclonal anti-CD4 antibodies. The beads were detached by adding polyclonal anti-mouse antibody (Dynal AS, Norway). The purity of the positively selected cells were higher than 99% as judged by FACS analysis. […]
Cells or freeze-dried cell culture supernatants were used for IL-4 protein content determination. […] The blots were then incubated with a polyclonal goat anti-human IL-4 antibody (R&D Systems, UK) followed by a horseradish peroxidase-labelled secondary antibody (Cat.no. RPN 2106 ECL, Amersham, UK), and the immunostaining was detected by exposing a film (Kodak X-OMAT-S, USA) for 90 seconds.
Thus, CD4+ T cells, purified as described in “Methods for T cell chemotaxis”, and cultured as described in the section “Determination of IL-4 production by CD4+ T lymphocytes”, were stimulated for 3 days with IT9302 (10 ng/ml) or IL-10 (100 ng/ml). Cytosolic fractions were collected and analyzed for their IL-4 content using Western blotting (FIG. 11) and a goat anti-human IL-4 polyclonal antibody.

With “H-AYMTMKIRN-OH [IT9302, NH2-Ala-Tyr-Met-Thr-Met-Lys-Ile-Arg-Asn-COOH]” the “effect on viability of cells” value [1] was “did not in this or in the following examples affect viability”.
With “NH2-Ser-Pro-Gly-Gln-Gly-Thr-Gln-Ser-Glu-COOH (H-SPGQGTQSE-OH) [IT9301, nonapeptide from the N-terminal end of hIL-10, control for negative results]” the “inhibition of IL-1β induced production of IL-8” value [2] was “did not induce any inhibition at all”.
In the case of “rhIL-10: Recombinant human interleukin 10 obtained from Pepro Tech Inc.”, the “induction of IRAP production” value [3] is reported as “induction of IRAP”, the “inhibition of class II MHC expression” value ([4]; 40 hours stimulation) is reported as “inhibits class II MHC expression” and the “Number of rosetting monocytes” value ([4]; stimulation 100 ng/ml, 40 hours) is reported as 4.6 ± 1.4 × 10^4. The “production of IL-4 by CD4+ T cells” value [5] was “induce the production of IL-4”.
